Source: patent US12226418B2, “Dosing regimen for the treatment of PI3K related disorders” (Incyte Corporation, priority 2018, dated 2025)

Key:
Type in all cases: biochemical
[1] = biological target: PI3Kδ (p110δ/p85α) (Homo sapiens (Human), UniProt O00329); assay: PI3Kδ scintillation proximity assay; details: 20 μM ATP; read-out: PI3Kδ SPA IC50
From the text: [γ-^33P]ATP (10 mCi/mL) was purchased from Perkin-Elmer (Waltham, MA). Lipid kinase substrate, D-myo-Phosphatidylinositol 4,5-bisphosphate (PtdIns(4,5)P2)D (+)-sn-1,2-di-O-octanoylglyceryl, 3-O-phospho linked (PIP2), CAS 204858-53-7, was purchased from Echelon Biosciences (Salt Lake City, UT). PI3Kδ (p110δ/p85α) was purchased from Millipore (Bedford, MA). ATP, MgCl2, DTT, EDTA, MOPS and CHAPS were purchased from Sigma-Aldrich (St. Louis, MO). Wheat Germ Agglutinin (WGA) YSi SPA Scintillation Beads was purchased from GE healthcare life sciences (Piscataway, NJ).
The kinase reaction was conducted in polystyrene 384-well matrix white plate from Thermo Fisher Scientific in a final volume of 25 μL. Inhibitors were first diluted serially in DMSO and added to the plate wells before the addition of other reaction components. The final concentration of DMSO in the assay was 0.5%. The PI3K assays were carried out at room temperature in 20 mM MOPS, pH 6.7, 10 mM MgCl2, 5 mM DTT and CHAPS 0.03%. Reactions were initiated by the addition of ATP, the final reaction mixture consisted of 20 μM PIP2, 20 μM ATP, 0.2 μCi [γ-^33P]ATP, 4 nM PI3Kδ. Reactions were incubated for 210 min and terminated by the addition of 40 μL SPA beads suspended in quench buffer: 150 mM potassium phosphate pH 8.0, 20% glycerol. 25 mM EDTA, 400 μM ATP. The final concentration of SPA beads was 1.0 mg/mL. After the plate sealing, plates were shaken overnight at room temperature and centrifuged at 1800 rpm for 10 minutes, the radioactivity of the product was determined by scintillation counting on Topcount (Perkin-Elmer). IC50 determination was performed by fitting the curve of percent control activity versus the log of the inhibitor concentration using the GraphPad Prism 3.0 software. IC50 data for the Examples is presented in Table B as determined by Assay A.

[2] = biological target: JAK1 (Homo sapiens (Human), UniProt P23458); assay: JAK1 IC50, Assay A of U.S. Ser. No. 14/680,659 at 1 mM ATP
[3] = biological target: JAK2 (Homo sapiens (Human), UniProt O60674); assay: JAK2/JAK1 selectivity, Assay A at 1 mM ATP; details: IC50 ratio
Chain of JAK2 (O60674 828-1132): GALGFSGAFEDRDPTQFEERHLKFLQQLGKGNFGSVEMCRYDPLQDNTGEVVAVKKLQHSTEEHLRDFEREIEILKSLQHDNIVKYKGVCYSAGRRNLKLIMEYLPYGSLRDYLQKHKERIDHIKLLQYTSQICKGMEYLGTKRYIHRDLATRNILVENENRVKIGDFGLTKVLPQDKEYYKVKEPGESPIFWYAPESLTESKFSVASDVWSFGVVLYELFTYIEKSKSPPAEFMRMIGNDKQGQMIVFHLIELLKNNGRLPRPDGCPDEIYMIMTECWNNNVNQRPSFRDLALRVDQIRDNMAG

Chain of PI3Kδ (p110δ/p85α) (O00329 whole entry): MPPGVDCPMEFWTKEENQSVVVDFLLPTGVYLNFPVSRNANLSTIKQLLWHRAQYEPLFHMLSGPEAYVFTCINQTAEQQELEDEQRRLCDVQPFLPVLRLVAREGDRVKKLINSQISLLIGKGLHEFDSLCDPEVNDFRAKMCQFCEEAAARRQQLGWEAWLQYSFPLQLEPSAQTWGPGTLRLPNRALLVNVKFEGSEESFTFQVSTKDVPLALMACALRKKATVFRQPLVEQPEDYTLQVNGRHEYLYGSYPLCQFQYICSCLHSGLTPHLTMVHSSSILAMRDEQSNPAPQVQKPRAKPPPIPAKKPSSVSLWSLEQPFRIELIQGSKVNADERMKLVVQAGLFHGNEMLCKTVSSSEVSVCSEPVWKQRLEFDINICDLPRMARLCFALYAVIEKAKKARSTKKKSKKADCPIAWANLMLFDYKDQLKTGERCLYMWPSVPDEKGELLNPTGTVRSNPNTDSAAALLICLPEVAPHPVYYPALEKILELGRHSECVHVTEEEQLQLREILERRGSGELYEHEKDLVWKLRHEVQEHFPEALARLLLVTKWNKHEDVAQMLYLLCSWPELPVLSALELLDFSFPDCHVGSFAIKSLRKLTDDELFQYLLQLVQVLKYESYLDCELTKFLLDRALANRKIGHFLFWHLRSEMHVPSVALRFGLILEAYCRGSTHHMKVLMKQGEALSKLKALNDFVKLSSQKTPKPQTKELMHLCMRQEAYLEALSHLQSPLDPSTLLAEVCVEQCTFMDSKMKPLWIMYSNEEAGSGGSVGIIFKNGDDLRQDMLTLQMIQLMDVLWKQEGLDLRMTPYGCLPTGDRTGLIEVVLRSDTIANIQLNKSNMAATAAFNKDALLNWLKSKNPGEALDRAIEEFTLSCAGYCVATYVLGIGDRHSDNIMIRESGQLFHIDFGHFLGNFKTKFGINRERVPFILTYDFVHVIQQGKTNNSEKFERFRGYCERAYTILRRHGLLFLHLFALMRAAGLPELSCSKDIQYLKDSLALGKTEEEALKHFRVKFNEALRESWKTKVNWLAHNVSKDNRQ
Chain of PI3Kδ (p110δ/p85α) (P27986 whole entry partner): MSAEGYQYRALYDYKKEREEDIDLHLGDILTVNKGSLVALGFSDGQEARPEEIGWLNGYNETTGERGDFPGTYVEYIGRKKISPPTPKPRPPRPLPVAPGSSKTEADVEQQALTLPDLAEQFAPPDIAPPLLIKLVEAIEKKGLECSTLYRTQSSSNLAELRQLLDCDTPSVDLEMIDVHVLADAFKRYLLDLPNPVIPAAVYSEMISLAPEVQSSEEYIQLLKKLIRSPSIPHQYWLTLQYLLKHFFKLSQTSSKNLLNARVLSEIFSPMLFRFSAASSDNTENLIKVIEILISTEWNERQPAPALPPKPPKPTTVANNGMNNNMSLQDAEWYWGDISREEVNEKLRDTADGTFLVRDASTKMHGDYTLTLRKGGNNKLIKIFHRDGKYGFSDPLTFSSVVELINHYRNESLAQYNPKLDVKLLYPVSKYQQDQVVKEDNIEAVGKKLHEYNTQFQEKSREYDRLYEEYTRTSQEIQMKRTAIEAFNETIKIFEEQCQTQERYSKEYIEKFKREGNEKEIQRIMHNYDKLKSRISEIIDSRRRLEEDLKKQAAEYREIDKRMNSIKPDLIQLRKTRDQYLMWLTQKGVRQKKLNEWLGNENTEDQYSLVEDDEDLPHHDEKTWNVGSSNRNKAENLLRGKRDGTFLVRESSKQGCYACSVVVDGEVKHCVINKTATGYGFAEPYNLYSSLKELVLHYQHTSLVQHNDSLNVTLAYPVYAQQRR
Chain of JAK1 (P23458 837-1142): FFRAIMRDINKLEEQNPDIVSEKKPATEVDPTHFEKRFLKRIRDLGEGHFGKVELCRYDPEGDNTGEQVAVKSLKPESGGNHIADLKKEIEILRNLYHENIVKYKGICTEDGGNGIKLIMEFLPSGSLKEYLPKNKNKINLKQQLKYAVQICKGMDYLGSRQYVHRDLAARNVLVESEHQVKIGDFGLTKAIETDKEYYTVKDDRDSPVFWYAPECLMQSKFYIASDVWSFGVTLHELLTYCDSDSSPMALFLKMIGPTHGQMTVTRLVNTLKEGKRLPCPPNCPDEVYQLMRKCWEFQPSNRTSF

| IC50 [1] | IC50 [2] | JAK2/ JAK1 [3] | Compound |
| --- | --- | --- | --- |
|  | < 10 nM | >10 | N#CCC1(n2cc(-c3ncnc4[nH]ccc34)cn2)CN(C2CCN(C(=O)c3ccnc(C(F)(F)F)c3F)CC2)C1 [Example 7] |
|  | < 10 nM | >10 | N#CCC1(n2cc(-c3ncnc4[nH]ccc34)cn2)CN(C2CCN(C(=O)Nc3ccc(F)cc3C(F)(F)F)CC2)C1 [Example 8] |
|  | < 10 nM | >10 | N#CCC1(n2cc(-c3ncnc4[nH]ccc34)cn2)CN(C2CCN(C(=O)c3ccnc(C(F)(F)F)n3)CC2)C1 [Example 9, [3-[4-(7H-pyrrolo[2,3-d]pyrimidin-4-yl)-1H-pyrazol-1-yl]-1-(1-{[2-(trifluoromethyl)pyrimidin-4-yl]carbonyl}piperidin-4-yl)azetidin-3-yl]acetonitrile] |
|  | < 10 nM | >10 | C[C@H](NC(=O)c1cc(F)c(N2CC(CC#N)(n3cc(-c4ncnc5[nH]ccc45)cn3)C2)cc1F)C(F)(F)F [Example 16, 4-{3-(cyanomethyl)-3-[4-(7H-pyrrolo[2,3-d]pyrimidin-4-yl)-1H-pyrazol-1-yl]azetidin-1-yl}-2,5-difluoro-N-[(1S)-2,2,2-trifluoro-1-methylethyl]benzamide] |
|  | < 10 nM | >10 | CCNCc1cc(O[C@H]2CC[C@@H](N3CC(CC#N)(n4cc(-c5ncnc6[nH]ccc56)cn4)C3)CC2)nc(C(F)(F)F)c1 [Example 19, {1-(cis-4-{[4-[(ethylamino)methyl]-6-(trifluoromethyl)pyridin-2-yl]oxy}cyclohexyl)-3-[4-(7H-pyrrolo[2,3-d]pyrimidin-4-yl)-1H-pyrazol-1-yl]azetidin-3-yl}acetonitrile] |
|  | < 10 nM | >10 | CC(C)(O)c1cc(O[C@H]2CC[C@@H](N3CC(CC#N)(n4cc(-c5ncnc6[nH]ccc56)cn4)C3)CC2)nc(C(F)(F)F)c1 [Example 20, {1-(cis-4-{[4-(1-hydroxy-1-methylethyl)-6-(trifluoromethyl)pyridin-2-yl]oxy}cyclohexyl)-3-[4-(7H-pyrrolo[2,3-d]pyrimidin-4-yl)-1H-pyrazol-1-yl]azetidin-3-yl}acetonitrile] |
|  | < 10 nM | >10 | C[C@@H](CO)NCc1cc(OC2CCN([C@H]3C[C@](CC#N)(n4cc(-c5ncnc6[nH]ccc56)cn4)C3)CC2)nc(C(F)(F)F)c1 [Example 23] |
|  | < 10 nM | >10 | C[C@@H](O)CNCc1cc(OC2CCN([C@H]3C[C@](CC#N)(n4cc(-c5ncnc6[nH]ccc56)cn4)C3)CC2)nc(C(F)(F)F)c1 [Example 24] |
|  | < 10 nM | >10 | C[C@H](O)CNCc1cc(OC2CCN([C@H]3C[C@](CC#N)(n4cc(-c5ncnc6[nH]ccc56)cn4)C3)CC2)nc(C(F)(F)F)c1 [Example 25] |
|  | < 10 nM | >10 | N#CC[C@]1(n2cc(-c3ncnc4[nH]ccc34)cn2)C[C@H](N2CCC(Oc3cc(CCO)cc(C(F)(F)F)n3)CC2)C1 [Example 26] |

The remaining lines, values behind:

| Compound | IC50 [1] | IC50 [2] | JAK2/ JAK1 [3] |
| --- | --- | --- | --- |
| CCOc1c(C(C)n2nc(C)c3c(N)ncnc32)cc(Cl)c(F)c1C1CNC(=O)C1 (single isomer, unassigned) [Example 1A, 4-{3-[1-(4-amino-3-methyl-1H-pyrazolo[3,4-d]pyrimidin-1-yl)ethyl]-5-chloro-2-ethoxy-6-fluorophenyl}pyrrolidin-2-one] | 50 to 200 nM |  |  |
| CCOc1c(C(C)n2nc(C)c3c(N)ncnc32)cc(Cl)c(F)c1C1CNC(=O)C1 (single isomer, unassigned) [Example 1D, 4-{3-[1-(4-amino-3-methyl-1H-pyrazolo[3,4-d]pyrimidin-1-yl)ethyl]-5-chloro-2-ethoxy-6-fluorophenyl}pyrrolidin-2-one] | 50 to 200 nM |  |  |
| CCOc1c(C(C)n2nc(C)c3c(N)ncnc32)cc(Cl)c(F)c1C1CNC(=O)O1 (single isomer, unassigned) [Example 2A, 5-{3-[1-(4-amino-3-methyl-1H-pyrazolo[3,4-d]pyrimidin-1-yl)ethyl]-5-chloro-2-ethoxy-6-fluorophenyl}-1,3-oxazolidin-2-one] | 50 to 200 nM |  |  |
| CCOc1c(C(C)n2nc(C)c3c(N)ncnc32)cc(Cl)c(F)c1C1CNC(=O)O1 (single isomer, unassigned) [Example 2B, 5-{3-[1-(4-amino-3-methyl-1H-pyrazolo[3,4-d]pyrimidin-1-yl)ethyl]-5-chloro-2-ethoxy-6-fluorophenyl}-1,3-oxazolidin-2-one] | 50 to 200 nM |  |  |
| CCOc1c(C(C)n2nc(C)c3c(N)ncnc32)cc(Cl)c(F)c1C1CNC(=O)O1 (single isomer, unassigned) [Example 2D, 5-{3-[1-(4-amino-3-methyl-1H-pyrazolo[3,4-d]pyrimidin-1-yl)ethyl]-5-chloro-2-ethoxy-6-fluorophenyl}-1,3-oxazolidin-2-one] | > 500 nM |  |  |
| C[C@@H](O)c1nc2cnc3ccsc3c2n1[C@H]1CC[C@H](CC#N)OC1 [Example 1, ((2R,5S)-5-{2-[(1R)-1-hydroxyethyl]-1H-imidazo[4,5-d]thieno[3,2-b]pyridin-1-yl}tetrahydro-2H-pyran-2-yl)acetonitrile] |  | < 100 nM | >10 |
| N#CCC(C1CCN(c2cccc(Cl)n2)C1)n1cc(-c2ncnc3[nH]ccc23)cn1 (stereo not shown) [Example 3, 3-[1-(6-chloropyridin-2-yl)pyrrolidin-3-yl]-3-[4-(7H-pyrrolo[2,3-d]pyrimidin-4-yl)-1H-pyrazol-1-yl]propanenitrile] |  | < 10 nM | >10 |
| N#CCC(C1CCN(c2nc3cccnc3o2)C1)n1cc(-c2ncnc3[nH]ccc23)cn1 (stereo not shown) [Example 4, 3-(1-[1,3]oxazolo[5,4-b]pyridin-2-ylpyrrolidin-3-yl)-3-[4-(7H-pyrrolo[2,3-d]pyrimidin-4-yl)-1H-pyrazol-1-yl]propanenitrile] |  | < 10 nM | >10 |
| N#CCC(CN1CCN(C(=O)c2ccc(C#N)cc2F)CC1)n1cc(-c2ncnc3[nH]ccc23)cn1 (stereo not shown) [Example 5, 4-[(4-{3-cyano-2-[4-(7H-pyrrolo[2,3-d]pyrimidin-4-yl)-1H-pyrazol-1-yl]propyl}piperazin-1-yl)carbonyl]-3-fluorobenzonitrile] |  | < 10 nM | >10 |
| N#CCC(CN1CCN(C(=O)c2ccc(C#N)cc2F)CC1)n1ccc(-c2ncnc3[nH]ccc23)c1 (stereo not shown) [Example 6, 4-[(4-{3-cyano-2-[3-(7H-pyrrolo[2,3-d]pyrimidin-4-yl)-1H-pyrrol-1-yl]propyl}piperazin-1-yl)carbonyl]-3-fluorobenzonitrile] |  | < 10 nM | >10 |
| N#CC[C@]1(n2cc(-c3ncnc4[nH]ccc34)cn2)C[C@H](N2CCN(C(=O)c3ccnc(C(F)(F)F)n3)CC2)C1 [Example 10] |  | < 10 nM | >10 |
| N#CC[C@]1(n2cc(-c3ncnc4[nH]ccc34)cn2)C[C@H](N2CCC(Oc3cc(CN4CC(O)C4)cc(C(F)(F)F)n3)CC2)C1 [Example 11] |  | < 10 nM | >10 |
| N#CC[C@]1(n2cc(-c3ncnc4[nH]ccc34)cn2)C[C@H](N2CCC(Oc3cc(CN4CCC[C@H]4CO)cc(C(F)(F)F)n3)CC2)C1 [Example 12] |  | < 10 nM | >10 |
| N#CC[C@]1(n2cc(-c3ncnc4[nH]ccc34)cn2)C[C@H](N2CCC(Oc3cc(CN4CCC[C@@H]4CO)cc(C(F)(F)F)n3)CC2)C1 [Example 13] |  | < 10 nM | >10 |
| N#CCC1(n2cc(-c3ncnc4[nH]ccc34)cn2)CN([C@H]2CC[C@@H](Oc3cc(CCO)nc(C(F)(F)F)n3)CC2)C1 [Example 18, {1-(cis-4-{[6-(2-hydroxyethyl)-2-(trifluoromethyl)pyrimidin-4-yl]oxy}cyclohexyl)-3-[4-(7H-pyrrolo[2,3-d]pyrimidin-4-yl)-1H-pyrazol-1-yl]azetidin-3-yl}acetonitrile] |  | < 10 nM | >10 |
| N#CCC1(n2cc(-c3ncnc4[nH]ccc34)cn2)CN([C@H]2CC[C@@H](Oc3cc(CN4CC[C@@H](O)C4)cc(C(F)(F)F)n3)CC2)C1 [Example 21, {1-(cis-4-{[4-{[(3R)-3-hydroxypyrrolidin-1-yl]methyl}-6-(trifluoromethyl)pyridin-2-yl]oxy}cyclohexyl)-3-[4-(7H-pyrrolo[2,3-d]pyrimidin-4-yl)-1H-pyrazol-1-yl]azetidin-3-yl}acetonitrile] |  | < 10 nM | >10 |
| N#CCC1(n2cc(-c3ncnc4[nH]ccc34)cn2)CN([C@H]2CC[C@@H](Oc3cc(CN4CC[C@H](O)C4)cc(C(F)(F)F)n3)CC2)C1 [Example 22, {1-(cis-4-{[4-{[(3S)-3-hydroxypyrrolidin-1-yl]methyl}-6-(trifluoromethyl)pyridin-2-yl]oxy}cyclohexyl)-3-[4-(7H-pyrrolo[2,3-d]pyrimidin-4-yl)-1H-pyrazol-1-yl]azetidin-3-yl}acetonitrile] |  | < 10 nM | >10 |
